From patent publication US20080311589A1, “METHOD OF HIGH-THROUGHPUT SCREENING OF MOLECULES AND COMPOUNDS FOR THEIR EFFECTS ON BIOLOGICAL AND CHEMICAL PROCESSES” (priority 1999, published 2008)
Read-outs that look alike come from different tables or passages of the source.

Legend:
[1] = test system: p3TPLux TGFβ-responsive reporter in 6F mink lung cells; assay: luciferase assay, stably transfected p3TPLux; format: cell-based; details: substance alone
Method: FIG. 19 graphs the dose-response of transcriptional activation of compounds 1a and 2 in the presence (*) or absence (•) of 400 pM TGFβ1. 20,000 6F mink lung cells ( ) were seeded in 384 well plates, allowed to attach for 16 hours in 10% mink medium, and were treated with the indicated concentrations of 1a or 2.
We screened more than 16,000 chemical compounds to identify those that specifically activated expression of a reporter gene (luciferase) under the control of TGFβ-responsive elements in stably transfected mammalian cells (mink lung epithelial cells). […] Given the structural similarity of compounds 1a-c, we expected that all three were operating through a common mechanism. We therefore continued testing on only one, compound 1a, as representative of the group.

[2] = test system: p3TPLux in 6F mink lung cells; assay: antagonism of p3TPLux activation in 6F mink lung cells; format: cell-based; details: for suppression of reporter activation by copper: TGFβ-responsive reporter; for suppression of reporter activation by 1a / suppression of reporter activation by 2 / suppression of reporter activation by TGFβ: TGFβ-responsive reporter in mink lung epithelial cells
Method: LUCIFERASE ASSAYS: Our transient transfection luciferase assay was described previously by us (Stockwell et al., Chem Biol 5:385, 1998). Briefly, 100,000 Mv1Lu mink lung epithelial cells were transiently transfected in 12-well dishes with 400 ng p3TPLux or pNFkB-Lux, with or without 50 ng pFC-MEKK, in 300 μL minimal essential medium with non-essential amino acids. The DEAE-dextran/chloroquine/DMSO methods was used for transfection (Stockwell et al., Chem Biol 6:71, 1999). After cell lysis in 120 μL lysis buffer, a Beckman LS 6500 liquid scintillation counter was used in single photon mode to quantitate luminescence. For detection of luciferase activity in 6F cells (including the primary screen), 20,000 6F cells were seeded in 50 μL of 10% mink medium in each well of a white 384-well plate (Nalge Nune International; Naperville, Ill.; cat#164610) using a Multidrop 384 liquid dispenser (Lab Systems; Helsinki, Finland). After 16 hours, medium was removed using a 24 channel wand (V&P Scientific, Inc.; San Diego, Calif.; cat#VP 186L), the cells were washed with 75 μL of 0.2% mink medium (containing 0.2% FBS), and reagents were added in 40 μL of 0.2% medium. For the primary screen, reagents were added by pin transfer using 384 polypropylene pin arrays (Matrix Technologies; Hudson, N.H.). After 24 hours, the cells were cooled on ice and washed twice with 75 μL Hanks Balanced Salt Solution (HBSS; GibcoBRL; cat#24020-117). Then 20 μL lysis buffer (25 mM glycylglycine (Sigma; cat#E-0396), 1% Triton X-100 (Sigma; cat#T-9284), 1 mM dithiothreitol (DTT; Sigma; cat#D-5545), 1 mM phenylmethylsulfonyl fluoride (PMSF; Sigma; cat#P-7626)) was added to each well with a Multidrop. After incubating the cells for five minutes on ice, 20 μL of ATP/luciferin solution was added (25 mM glycylglycine pH 7.8, 15 mM MgSO4, 4 mM EGTA, 6.25 mM K2HPO4 (Sigma; cat#P5504) pH 7.8, 5 mM DTT, 75 μM D-luciferin (Sigma, cat# L-9504, 2 mM ATP (Sigma; cat#A-7699)). Light output was immediately measured with an Analyst 384-well platereader (LJL), with 0.5 second counting time per well.

[3] = UV spectral shift binding assay with 1a; details: metal ion concentration inducing a 50% shift in λmax of UV shoulder of 1a ([1a] = 15 μM) from 292 nm to 273 nm; estimate of dissociation constant; read-out: EC50UV 1a
Method: (§1) UV SPECTRAL SHIFT BINDING ASSAY: A quartz cuvette with 1 mL deionized, distilled water was used as a blank on a Cary 1E UV-visible spectrophotomer. 1a or 2 was diluted to a final concentration of 15 μM or 20 μM, respectively, and the UV spectrum from 240 nm to 320 nm was measured. […] Upon addition of certain transition metals (Table 1), this peak shifted such that the new λmax was 273 nm and 310 nm, for 1a and 2, respectively. […] For the calculation of correlation coefficients, all values less than 7.5 μM were taken to be 7.5 μM, all values greater than 1000 μM were taken to be 1000 μm and all values less than 10 μM were taken to be 10 μM.

[4] = UV spectral shift binding assay with 2; details: metal ion concentration inducing a 50% shift in λmax of UV shoulder of 2 from 297 nm to 310 nm ([2] = 20 μM); read-out: EC50UV 2
Method: as §1

[5] = test system: Mv1Lu mink lung epithelial cells; assay: 384 well anti-BrdU cytoblot; format: cell-based; details: 384-well plate; antiproliferative agents 24 hours, then 10 μM BrdU 16 hours (FIG. 2)
Source text: FIG. 1. An immunodetection assay for DNA synthesis in high density arrays of mammalian cells. (a) Cartoon depiction of an anti-BrdU cytoblot. The thymine analog 5-bromodeoxyuridine (BrdU) is incorporated into the DNA of cells that are actively replicating their DNA. The cells are in the well, and BrdU is detected with a two step antibody binding procedure. The second antibody is conjugated to the enzyme horseradish peroxidase. In the presence of the chemiluminescent substrate luminol as well as hydrogen peroxide, light of wavelength 428 nm is generated. The light emission can be detected by exposing the plate to film. (b) A cytoblot can detect TGF-β's ability to prevent BrdU incorporation in mink lung epithelial cells. 2000 Mv1Lu mink lung epithelial cells were seeded in each well of a white, opaque 384 well plate. The cells were seeded in the indicated concentrations of TGF-β in 50 μL of DMEM with 1% fetal bovine serum (FBS), 100 units/mL penicillin G sodium, 100 μg/mL streptomycin sulfate and 100 μM each of the amino acids alanine, aspartic acid, glutamine, glycine, asparagine and proline (referred to throughout as 1% mink medium) and allowed to incubate at 37° C. with 5% CO2. After 16 hours, 5.5 μL of 100 μM BrdU in 1% mink medium was added to each well, for a final concentration of 10 μM BrdU. The cells were incubated at 37° C. with 5% CO2 for an additional 16 hours and then an anti-BrdU cytoblot protocol was performed (see protocol). Wells shown are magnified 4×.
FIG. 2. A cytoblot can detect the ability of numerous antiproliferative agents to inhibit BrdU incorporation. 2000 Mv1Lu mink lung epithelial cells were seeded in each well of a white, opaque 384 well plate. The cells were seeded in 40 μL of 1% mink media and immediately 40 μL of 2× stocks of the reagents shown was added to each well and the cells were allowed to incubate at 37° C. with 5% CO2. After 24 hours, 9 μL of 100 μM BrdU in 1% mink medium was added to each well, for a final concentration of 10 μM BrdU. The cells were incubated at 37° C. with 5% CO2 for an additional 16 hours and then an anti-BrdU cytoblot protocol was performed (see protocol). Wells shown are magnified 2.5×.
The ability of the cytoblot assay to detect changes in DNA synthesis was tested by measuring the incorporation of 5-bromodeoxyuridine (BrdU, Sigma Corporation, St. Louis, Mo., Cat.# B9285) into DNA in the presence or absence of the anti-mitogen transforming growth factor β (TGF-β). Mink lung cells, which are responsive to TGF-β, were seeded into each well of an opaque, white 384-well plate. The cells were subsequently treated with varying concentrations of TGF-β for 16 hours and then with 10 μM BrdU for 16 hours. […] The following protocols provide experimental detail. […]

[6] = metal ion concentration inhibiting 50% of the activation of p3TPLux by 1a ([1a] = 3 μM) in 6F mink lung cells, read-out: EC50SU 1a
[7] = metal ion concentration inhibiting 50% of the activation of p3TPLux by 2 ([2] = 64 μM) in 6F mink lung cells, read-out: EC50Su 2

| SMILES | activation of the TGFβ-responsive reporter gene [1] | alteration of the effect of 1a, 2, or copper on the reporter [2] | EC50 [3] | EC50 [4] | suppression of reporter activation by copper [2] | suppression of reporter activation by 1a [2] | suppression of reporter activation by 2 [2] | suppression of reporter activation by TGFβ [2] | EC50 [2, 6] | EC50 [2, 7] | BrdU incorporation [5] |
| --- | --- | --- | --- | --- | --- | --- | --- | --- | --- | --- | --- |
| Oc1cccc2cccnc12 [8-hydroxyquinoline, 8-quinolinol] | did not activate our reporter |  |  |  |  |  |  |  |  |  |  |
| CC(C)(C#N)N=NC(C)(C)C#N [AIBN, 2,2′-azobis (2-methylpropinonitrile)] |  | neither agent altered the effect of 1a, 2, or copper |  |  |  |  |  |  |  |  |  |
| [Cl][Al]([Cl])[Cl] [Al^3+, A1C13] |  |  | 30 µM | 200 µM | did not | suppressed transcriptional activation by 1a | no effect on activation by 2 or TGFβ | no effect on activation by 2 or TGFβ | 1 µM | > 300 µM |  |
| CC(=O)[O-].CC(=O)[O-].[Ba+2] [Ba^2+, Ba(OAc)2] |  |  | > 1000 µM | > 1000 µM |  |  |  |  | > 1000 µM | > 1000 µM |  |
| [Ca+2].[Cl-].[Cl-] [Ca^2+, CaCl2.2H2O] |  |  | > 1000 µM | > 1000 µM |  |  |  |  | > 1000 µM | > 1000 µM |  |
| O.O.O.O.O.O.[Cl-].[Cl-].[Co+2] [Co^2+, CoCl2.6H2O] |  |  |  |  | did not | completely suppressed | completely suppressed | no effect |  |  |  |
| [Cl-].[Cl-].[Co+2] [Co^2+, CoCl2.6H2O] |  |  | 100 µM | 50 µM |  |  |  |  | 10 µM | 30 µM |  |
| OO [Compound H2O2, H2O2] |  | neither agent altered the effect of 1a, 2, or copper |  |  |  |  |  |  |  |  |  |
| [Cl][Fe]([Cl])[Cl] [Fe^3+, FeCl3] |  |  | < 7.5 µM | < 10 µM | did not | completely suppressed | completely suppressed | no effect | 2 µM | 9 µM |  |
| [Cl-].[K+] [K^+, KCl] |  |  | > 1000 µM | > 1000 µM |  |  |  |  | > 1000 µM | > 1000 µM |  |
| [Cl-].[Cl-].[Mg+2] [Mg^2+, MgCl2] |  |  | > 1000 µM | > 1000 µM |  |  |  |  | > 1000 µM | > 1000 µM |  |
| O.O.O.O.[Cl][Mn][Cl] [Mn^2+, MnC12.4H2O] |  |  | 80 µM | > 1000 µM | did not | suppressed transcriptional activation by 1a | no effect on activation by 2 or TGFβ | no effect on activation by 2 or TGFβ | 200 µM | > 300 µM |  |
| [Cl-].[Na+] [Na^+, NaCl] |  |  | > 1000 µM | > 1000 µM |  |  |  |  | > 1000 µM | > 1000 µM |  |
| O.O.O.O.O.O.O=S(=O)([O-])[O-].[Ni+2] [Ni^2+, NiSO4.6H2O] |  |  | 280 µM | 500 µM | did not | suppressed transcriptional activation by 1a | no effect on activation by 2 or TGFβ | no effect on activation by 2 or TGFβ | 10 µM |  |  |
| [Cl-].[Cl-].[Zn+2] [Zn^2+, ZnCl2] |  |  | < 7.5 µM | 500 µM | suppressed the ability of copper to activate reporter gene expression | suppressed transcriptional activation by 1a | no effect on activation by 2 or TGFβ | no effect on activation by 2 or TGFβ | 0.5 µM | > 300 µM |  |
| NC(=O)NO [hydroxyurea] |  |  |  |  |  |  |  |  |  |  | effectively prevent BrdU incorporation |
